Source: US9029414B2, “Triterpenoid compounds and methods of use thereof” (Biotechnology Research Corporation, priority 2008, dated 2015)

Columns and labels:
[1] = system: BALB/c mice; test: Murine model of oxazolone-induced ear edema; format: in vivo; details: topical, positive control
Protocol: This is a contract research performed by Washington Biotechnology Inc., Columbia, Md., protocol 1041. On day 0, 42 BALB/c mice (female, Harlan Sprague-Dawley, 5-6 weeks) were shaved on the ventral surface of the right ear. 100 μl of the 5% oxazolone solution (Sigma) was then applied to the saved ear. The treated mice were then returned to the cage and kept for additional 6 days. On day 7, the mice were weighed and dosed orally with 10 ml/kg water or DA021 at either 30 mg/kg or 100 mg/kg or topically applied on both sides of both ears with 25 μl betamethasone. Thirty minutes after oral dosing, 5 μl of 3% oxazolone was applied to both sides of the right ear and 5 μl of acetone was applied to both sides of the contralateral ear. Twenty-four hours after 3% oxazolone/acetone application, the mice were euthanized, the ears removed and weighed.
To evaluate the efficacy and potency of DA021 in acute inflammation, an oxazolone-induced ear edema model was carried out in mice. Oxazolone-induced ear edema model is a commonly used skin inflammatory animal model. Oxazolone (OA) is an allergen that induces immunological responses that lead to surface edema. […] Betamethasone (BMS) which was used as a positive control, is a corticosteroid that is used as an anti-itching cream and other anti-inflammatory remedies.
Mice were then treated with betamethasone (BMS, mg, topical) or DA021 (mg/kg, p.o.) and the ears were removed and weighed. N=10 per group, significance (p-value) was calculated versus OA+vehicle using the Student's T-test, *=P≦1×10^−7, #=P≦1×10^−12.

[2] = system: cortical neurons; test: Cortical neuron survival assay against amyloid beta peptide excitotoxicity (MTT); format: cell-based, Sprague-Dawley rats; parameters: key: black bars represent compounds with strong protective effect; striped bars represent compounds with moderate effect; light-dotted bars represent compounds without or with effect less than 25%; details: compounds 2 hours prior to co-treatment with Aβ25-35 (10 μM) 24 hours
Protocol: FIG. 14. Derivatives of DA001 protect the cortical neurons from Aβ25-35 excitotoxicity. Cortical neurons were incubated with compounds (at various [μM]) derived from of DA001 2 hours prior to co-treatment with Aβ25-35 (10 μM) for 24 hours. 3-(4,5-Dimethylthiazol-2-yl)-2,5-diphenyltetrazolium bromide (MTT) assay was performed 24 hours after Aβ25-35 treatment. Data are expressed as mean fold change±s.e.m. compared to solvent control (DMSO). Dark-dotted bar represents data without addition of Aβ25-35, open bar represents solvent control, black bars represent compounds with strong protective effect while striped bars represent compounds with moderate effect, light-dotted bars represent compounds without or with effect less than 25%. *=P<0.05, **=P<0.005.
Cortical neurons were prepared from embryonic day 18 Sprague-Dawley rats. After the cortices had been removed from the brain, isolated cells were plated onto Poly d-Lysine (PDL) (P0899, Sigma)-coated 48 well plates (150687, NUNC) at a density of 1×10^5 cell per well using Neurobasal Medium (NB) (21103-049, Gibco) with B27 supplement (17504-044, Gibco), penicillin/streptomycin (15140, Gibco) and 1 mM L-glutamine (25030, Gibco). The cell culture was incubated at 37° C. in a humidified atmosphere of 5% CO2 in air. Medium was changed to growth medium (Neurobasal Medium with penicillin/streptomycin and B27 supplement) after 3 hours. Half medium was changed with growth medium every 2-3 days to maintain the cells until day 7 in vitro (7 DIV). Serial dilutions of samples were prepared in growth medium and DMSO was used as vehicle control. For pre-treating part, half of the medium was removed from wells, and equal amount of diluted samples were replaced. Cells were then incubated for 2 hours at 37° C. in a humidified atmosphere of 5% CO2 in air. Cortical neurons were then incubated with DA001 derived compounds (at various concentrations in [μM]) together with Aβ25-35 (10 μM, Sigma) for 24 hours. Quantification of living cells are measured by MTT (3-(4,5-Dimethylthiazol-2-yl)-2,5-diphenyltetrazolium bromide, USB) assay performed 24 hours after Aβ25-35 treatment. Yellow MTT is reduced to purple formazan in the mitochondria of living cells. A solubilization solution [10% SDS (sodium dodecyl sulfate)/0.01 M hydrochloric acid] is added to dissolve the insoluble purple formazan product into a colored solution which was then quantified at wavelength 570 nm using a spectrophotometer (DYNEX Technologies).
A total of 90 derivatives of DA001 were synthesized, and their effect on cortical neurons survival against amyloid beta peptide (Aβ25-35) excitotoxicity was examined. […] Compounds with strong protective effect are DA002, DA005, DA007, DA016, DA018, DA019, DA042, DA044, DA060 and DA072.

[3] = system: LPS-induced TNF-α in serum; test: Murine model of lipopolysaccharide-induced cytokine production; format: in vivo, Swiss-Webster mice; details: 10 mg/kg orally, positive control
Protocol: This is a contract research performed by Washington Biotechnology Inc., Columbia, Md., protocol 1077. Swiss-Webster mice (female, Harlan Sprague-Dawley, 5-6 weeks) were weighed and dosed orally with 10 ml/kg water, prednisolone at 10 mg/kg, or DA021 at 30 mg/kg or 100 mg/kg. Thirty minutes after oral dosing, lipopolysaccharides (LPS) at 2 mL/kg was injected. Two hours after LPS injection, the mice were anesthetized and exsanguinated into serum separator micro-container tubes. The blood was processed to serum. The serum samples were assayed for tumor necrosis factor-α (TNFα) concentration by ELISA (Pierce) according to the manufacturer's protocol.
Evaluation of the efficacy and potency of orally administered DA021 to inhibit the lipopolysaccharide (LPS)-induced release of tumor necrosis factor-α (TNF-α) in mice was carried out. LPS is a widely used endotoxin, isolated from the bacteria, E. coli in inducing acute inflammation in an organism. Prednisolone is a synthetic corticosteroid drug that is commonly used in inflammatory reactions. It is a broad range immunosuppressant. Based on FIG. 29, there was a marked increase in the amount of TNF-α in serum upon LPS treatment in mice.
Two hours after LPS injection, the serum was collected from the mice. The serum samples were assayed for tumor necrosis factor-α (TNFα) concentration by ELISA (Pierce) according to the manufacturer's protocol. N=10, significance was calculated versus LPS+vehicle using the Student's T-test, *=p≦0.05, #=p≦1×10^−4.

[4] = system: C57BL/6 mice immunized with MOG; test: Experimental autoimmune encephalomyelitis (EAE) behavioral scores; format: in vivo; details: 100 mg/kg oral daily from day of immunization
Protocol: FIG. 15 illustrates that DA001 improves the behavioral scores of mice with experimental autoimmune encephalomyelitis. C57BL/6 mice were immunized subcutaneously at both sides of their hind limbs with myelin oligodendrocyte glycoprotein (MOG)/Complete Freund's Adjuvant (CFA) kit (Hooke Laboratories) and performed as indicated in the manufacturer's instruction. Albumin/CFA kit (Hooke Laboratories) were used as an immunization control. Oral administration of DA001 at 100 mg/kg was given daily starting from the day of immunization. The vehicle (water) was given to mice injected with MOG or albumin daily via oral administration. Animals were weighed and monitored daily and behavioral impairment was quantified based on the clinical scale. The graph presented here is a composite of four separate EAE trials. **=p≦0.01.
FIG. 16 illustrates that DA002 improves the behavioral scores of mice with experimental autoimmune encephalomyelitis. C57BL/6 mice were immunized subcutaneously at both sides of their hind limbs with myelin oligodendrocyte glycoprotein (MOG)/Complete Freund's Adjuvant (CFA) kit (Hooke Laboratories) and performed as indicated in the manufacturer's instruction. […] Animals were weighed and monitored daily and behavioral impairment was quantified based on the clinical scale. *=p≦0.05.
C57BL/6 mice were immunized subcutaneously at both sides of their hind limbs with myelin oligodendrocyte glycoprotein (MOG)/Complete Freund's Adjuvant (CFA) kit (Hooke Laboratories) and performed as in manufacturer's instruction. […] Animals were weighed and monitored daily and behavioral impairment was quantified based on the clinical scale. […]
On day 0, six-week old male C57BL/6 mice (Hong Kong University of Science and Technology, Animal Care facility) were immunized with 100 μg of myelin oligodendrocyte glycoprotein peptide (MOG35-55)/complete Freund's Adjuvant (CFA) emulsion kit (Hooke Laboratories) was injected subcutaneously at both sides of the tail base. […] The animals were also weighed and the neurological impairment was quantified daily based on the previously published criteria. […]

For `C[C@H]1C[C@H]2[C@@H]3CCC4=CC(=O)C=C[C@]4(C)[C@@]3(F)[C@@H](O)C[C@]2(C)[C@@]1(O)C(=O)CO` [Betamethasone, reference compound], the “Change in Ear Weight (mg), Average” value [1] was 17.4 mg and the “Change in Ear Weight, % Inhibition” value [1] was 75.4%.
With `C=C(C)[C@@H]1CC[C@]2(C(=O)O)CC[C@]3(C)C(CCC4[C@@]5(C)CC/C(=N\O)[C@@](C)(CO)[C@@H]5CC[C@]43C)C12` (stereo partly shown) [DA019] the “protective effect against Aβ25-35 excitotoxicity” value (“protective effect” for short) [2] was “strong”.
`C=C(C)[C@@H]1CC[C@]2(C(=O)O)CC[C@]3(C)C(CCC4[C@@]5(C)CCC(=O)[C@@](C)(COC(C)=O)[C@@H]5CC[C@]43C)C12` (stereo partly shown) [DA016] was tested, and the “protective effect” value [2] was “strong”.
With `C=C(C)[C@@H]1CC[C@]2(C(=O)O)CC[C@]3(C)C(CCC4[C@@]5(C)CCC(=O)[C@@](C)(CO)[C@@H]5CC[C@]43C)C12` (stereo partly shown) [DA018] the “protective effect” value [2] was “strong”.
In the case of `C=C(C)[C@@H]1CC[C@]2(C(=O)NCc3ccccc3)CC[C@]3(C)C(CCC4[C@@]5(C)CC[C@H](O)[C@@](C)(CO)[C@@H]5CC[C@]43C)C12` (stereo partly shown) [DA042], the “protective effect” value [2] is reported as “strong”.
In the case of `C[C@]12C=CC(=O)C=C1CC[C@@H]1[C@@H]2[C@@H](O)C[C@@]2(C)[C@H]1CC[C@]2(O)C(=O)CO` [Prednisolone, reference compound], the “LPS-induced TNF-α level” value [3] is reported as “dramatically decreased”.
`C=C(CNCc1ccccc1)[C@@H]1CC[C@]2(C(=O)O)CC[C@]3(C)C(CC[C@@H]4[C@@]5(C)CC[C@H](OC(C)=O)[C@@](C)(COC(C)=O)[C@@H]5CC[C@]43C)[C@@H]12` (stereo partly shown) [DA072, 30-N-Benzylamino-3,23-diacetoxy-betulinic acid] was tested, and the “protective effect” value [2] was “strong”.
`C=C(C)[C@@H]1CC[C@]2(C(=O)O)CC[C@]3(C)C(CCC4[C@@]5(C)CC[C@H](O)[C@@](C)(CO)[C@@H]5CC[C@]43C)C12` (stereo partly shown) [DA002] was tested, and the “protective effect” value [2] was “strong” and the “EAE scores vs vehicle-treated EAE mice” value [4] was “significant decrease in the EAE scores”.
In the case of `C=C(C)[C@@H]1CC[C@]2(C(=O)O)CC[C@]3(C)C(CCC4[C@@]5(C)CC[C@H](OC(C)=O)[C@@](C)(CO)[C@@H]5CC[C@]43C)C12` (stereo partly shown) [DA007], the “protective effect” value [2] is reported as “strong”.
In the case of `C=C(COC(C)=O)[C@@H]1CC[C@]2(C(=O)O)CC[C@]3(C)C(CC[C@@H]4[C@@]5(C)CC[C@H](OC(C)=O)[C@@](C)(COC(C)=O)[C@@H]5CC[C@]43C)[C@@H]12` (stereo partly shown) [DA060, 3,23,30-Triacetoxy-betulinic acid], the “protective effect” value [2] is reported as “strong”.
`C=C(C)[C@@H]1CC[C@]2(C(=O)O)CC[C@]3(C)C(CCC4[C@@]5(C)CC[C@H](O[C@@H]6OC[C@H](OC(C)=O)[C@H](OC(C)=O)[C@H]6O[C@@H]6O[C@@H](C)[C@H](OC(C)=O)[C@@H](OC(C)=O)[C@H]6OC(C)=O)[C@@](C)(COC(C)=O)[C@@H]5CC[C@]43C)C12` (stereo partly shown) [DA044] was tested, and the “protective effect” value [2] was “strong”.
